Measurements from ChEMBL document CHEMBL1144762, “Diterpenoids from the roots of Suregada glomerulata” (J Nat Prod, 2008).
≈ marks a conversion by molar mass, not a printed value.

How the values were obtained:
Format in all cases: functional, cell-based
[1] = Cytotoxicity against human BGC 823 cells by MTT assay
[2] = system: A549; experiment: Cytotoxicity against human A549 cells by MTT assay
[3] = system: HCT-8; experiment: Cytotoxicity against human HCT8 cells by MTT assay
[4] = system: A2780; experiment: Cytotoxicity against human A2780 cells by MTT assay
[5] = Cytotoxicity against human Bel 7402 cells by MTT assay

In the case of O=c1[nH]cc(F)c(=O)[nH]1 [FLUOROURACIL], the IC50 [1] is reported as 0.7 µg/mL (≈ 5.38 µM), the IC50 [2] is reported as 0.18 µg/mL (≈ 1.38 µM) and the IC50 [3] is reported as 0.54 µg/mL (≈ 4.15 µM). It also gave an IC50 [4] of 0.65 µg/mL (≈ 5 µM) and an IC50 [5] of 0.54 µg/mL (≈ 4.15 µM).

For CC1=C2C(=C[C@H]3[C@]4(C)CCC(=O)C(C)(C)[C@H]4CC[C@]34O[C@H]24)OC1=O, the IC50 [1] was > 10 µg/mL, the IC50 [2] was > 10 µg/mL and the IC50 [3] was > 10 µg/mL. For the same compound, the IC50 [4] was 8.22 µg/mL (≈ 25 µM) and the IC50 [5] was 7.53 µg/mL (≈ 22.9 µM).
